Laboratory results: publication PMC5979531, “Structural Requirements of Alkylglyceryl-L-Ascorbic Acid Derivatives for Melanogenesis Inhibitory Activity” (International Journal of Molecular Sciences, 2018)
Values belong to the compound of their own block, whether it stands above or below them.

What was measured:
[1] = tested on: B16 melanoma 4A5 cells; assay: Theophylline-stimulated melanogenesis inhibition (melanin content); format: cell-based, murine; conditions: Mus musculus, 72 h; for inhibition at 100 µM / inhibition at 300 µM / inhibition at 1000 µM / inhibition at 3000 µM / inhibition at 3 µM / inhibition at 10 µM / inhibition at 30 µM: theophylline-stimulated B16 4A5 cells; for IC50: theophylline (1 mM)-stimulated B16 melanoma 4A5 cells
Method: (§1) The effects on theophylline-stimulated melanogenesis and viability of B16 melanoma 4A5 cells were examined according to previously described protocols. Briefly, murine B16 melanoma 4A5 cells were seeded into 48-well plates in DMEM. After 24 h of culture, a test compound and theophylline (1 mM) were added and incubated for 72 h. The melanin content and cell viability were then measured. IC50 values were determined graphically.
Inhibition (%) was calculated using the following formula, where A and B indicate the optical density of the vehicle- and test compound-treated groups, respectively, and C indicates cell viability (%) (see below): Inhibition (%) = [(A − B)/A]/(C/100) × 100.

[2] = Cell viability of B16 melanoma 4A5 cells; format: cell-based, murine; conditions: mouse, B16 4A5 cells
Method: as §1

[3] = tested on: tyrosinase from mushroom; assay: Mushroom tyrosinase activity; format: biochemical
Method: Tyrosinase activities using L-tyrosine or L-DOPA as a substrate were determined according to the protocols described previously. Briefly, samples, L-tyrosine (2.5 mM, or L-DOPA, 3.0 mM), mushroom tyrosinase (46 units/mL), and phosphate buffer were mixed in a 96-well plate and incubated at 25 °C. (L-tyrosine; 30 min, L-DOPA; 5 min). The absorbance was then measured at 492 nm.

IC50 [1]: 283 µM
Structure (SMILES): CCCCCOC1=C(OCC(O)CO)C(=O)O[C@@H]1[C@@H](O)CO (stereo partly drawn) [compound 19, 2-O-(2,3-dihydroxypropyl)-3-O-pentyl-AsA]
inhibition at 100 µM [1]: 14 ± 4.4%
inhibition at 300 µM [1]: 53 ± 1.1%
inhibition at 1000 µM [1]: 83.1 ± 1.4%
inhibition at 3000 µM [1]: 97.1 ± 0.9%
viability at 72 h, 100 µM [2]: 86.7%
viability at 72 h, 300 µM [2]: 73.4%
viability at 72 h, 1000 µM [2]: 54.7%
viability at 72 h, 3000 µM [2]: 22.5%

IC50 [1]: > 100 µM
Inhibition (%) of mushroom tyrosinase ([3]; Substrate: L-DOPA, 30 µM): −10.0 ± 1.7%
Inhibition (%) of mushroom tyrosinase ([3]; Substrate: L-DOPA, 100 µM): −11.3 ± 2.4%
Inhibition (%) of mushroom tyrosinase ([3]; Substrate: L-Tyrosine, 30 µM): −9.2 ± 2.1%
Inhibition (%) of mushroom tyrosinase ([3]; Substrate: L-Tyrosine, 100 µM): −9.8 ± 3.9%
Structure (SMILES): CCCCCCCOC1=C(OCC(O)CO)C(=O)O[C@@H]1[C@@H](O)CO (stereo partly drawn) [compound 21, 2-O-(2,3-dihydroxypropyl)-3-O-heptyl-AsA]
inhibition at 3 µM [1]: -6.3 ± 2.7%
inhibition at 10 µM [1]: 0.9 ± 8.2%
inhibition at 30 µM [1]: 21 ± 5%
inhibition at 100 µM [1]: 44.6 ± 6.2%
viability at 72 h, 3 µM [2]: 97.9%
viability at 72 h, 10 µM [2]: 92.7%
viability at 72 h, 30 µM [2]: 92.7%
viability at 72 h, 100 µM [2]: 86.3%

IC50 [1]: > 100 µM
Inhibition (%) of mushroom tyrosinase ([3]; Substrate: L-DOPA, 30 µM): −13.1 ± 3.3%
Inhibition (%) of mushroom tyrosinase ([3]; Substrate: L-DOPA, 100 µM): −4.5 ± 2.0%
Inhibition (%) of mushroom tyrosinase ([3]; Substrate: L-Tyrosine, 30 µM): −11.5 ± 1.6%
Inhibition (%) of mushroom tyrosinase ([3]; Substrate: L-Tyrosine, 100 µM): −14.4 ± 1.8%
Structure (SMILES): CCCCCCCCOC1=C(OCC(O)CO)C(=O)O[C@@H]1[C@@H](O)CO (stereo partly drawn) [compound 22, 2-O-(2,3-dihydroxypropyl)-3-O-octyl-AsA]
inhibition at 3 µM [1]: -10.4 ± 6%
inhibition at 10 µM [1]: 1 ± 7%
inhibition at 30 µM [1]: 2.3 ± 5.9%
inhibition at 100 µM [1]: 34.8 ± 8.2%
viability at 72 h, 3 µM [2]: 98.8%
viability at 72 h, 10 µM [2]: 99.3%
viability at 72 h, 30 µM [2]: 91.6%
viability at 72 h, 100 µM [2]: 83%

IC50 [1]: 72.9 µM
Inhibition (%) of mushroom tyrosinase ([3]; Substrate: L-DOPA, 30 µM): −4.1 ± 2.2%
Inhibition (%) of mushroom tyrosinase ([3]; Substrate: L-DOPA, 100 µM): −1.5 ± 2.2%
Inhibition (%) of mushroom tyrosinase ([3]; Substrate: L-Tyrosine, 30 µM): −5.0 ± 3.1%
Inhibition (%) of mushroom tyrosinase ([3]; Substrate: L-Tyrosine, 100 µM): −2.6 ± 2.4%
Structure (SMILES): CCCCCCCCCOC1=C(OCC(O)CO)C(=O)O[C@@H]1[C@@H](O)CO (stereo partly drawn) [compound 23, 2-O-(2,3-dihydroxypropyl)-3-O-nonyl-AsA]
inhibition at 3 µM [1]: -1.3 ± 9.4%
inhibition at 10 µM [1]: -2.6 ± 8%
inhibition at 30 µM [1]: 14.9 ± 5.6%
inhibition at 100 µM [1]: 77.1 ± 2.4%
viability at 72 h, 3 µM [2]: 96.6%
viability at 72 h, 10 µM [2]: 90.6%
viability at 72 h, 30 µM [2]: 81.2%
viability at 72 h, 100 µM [2]: 60.7%

The remaining lines, values behind:

Structure (SMILES): O=C1O[C@H]([C@@H](O)CO)C(O)=C1OCC(O)CO (stereo partly drawn) [compound 15, 2-O-(2,3-dihydroxypropyl)-AsA]
inhibition at 100 µM [1]: -9.7 ± 1.2%
inhibition at 300 µM [1]: -4.8 ± 1%
inhibition at 1000 µM [1]: -2.3 ± 1.7%
inhibition at 3000 µM [1]: -6.1 ± 2.7%
IC50 [1]: > 3000 µM
viability at 72 h, 100 µM [2]: 101%
viability at 72 h, 300 µM [2]: 102%
viability at 72 h, 1000 µM [2]: 102%
viability at 72 h, 3000 µM [2]: 107%

Structure (SMILES): CCOC1=C(OCC(O)CO)C(=O)O[C@@H]1[C@@H](O)CO (stereo partly drawn) [compound 16, 2-O-(2,3-dihydroxypropyl)-3-O-ethyl-AsA]
inhibition at 100 µM [1]: -4.2 ± 2.3%
inhibition at 300 µM [1]: -5.4 ± 1.5%
inhibition at 1000 µM [1]: 12.1 ± 2.2%
inhibition at 3000 µM [1]: 42 ± 1.4%
IC50 [1]: > 3000 µM
viability at 72 h, 100 µM [2]: 105%
viability at 72 h, 300 µM [2]: 95.9%
viability at 72 h, 1000 µM [2]: 95.9%
viability at 72 h, 3000 µM [2]: 84%

Structure (SMILES): CCCOC1=C(OCC(O)CO)C(=O)O[C@@H]1[C@@H](O)CO (stereo partly drawn) [compound 17, 2-O-(2,3-dihydroxypropyl)-3-O-propyl-AsA]
inhibition at 100 µM [1]: -5.9 ± 3.3%
inhibition at 300 µM [1]: -3.9 ± 4.1%
inhibition at 1000 µM [1]: 1.3 ± 4.2%
inhibition at 3000 µM [1]: 23.2 ± 5.6%
IC50 [1]: > 3000 µM
viability at 72 h, 100 µM [2]: 98.4%
viability at 72 h, 300 µM [2]: 95.6%
viability at 72 h, 1000 µM [2]: 92%
viability at 72 h, 3000 µM [2]: 82.9%

Structure (SMILES): CCCCOC1=C(OCC(O)CO)C(=O)O[C@@H]1[C@@H](O)CO (stereo partly drawn) [compound 18, 3-O-butyl-2-O-(2,3-dihydroxypropyl)-AsA]
inhibition at 100 µM [1]: 0.2 ± 4.4%
inhibition at 300 µM [1]: 36.3 ± 2.8%
inhibition at 1000 µM [1]: 68 ± 2.1%
inhibition at 3000 µM [1]: 84.1 ± 1.4%
IC50 [1]: 473 µM
viability at 72 h, 100 µM [2]: 99.8%
viability at 72 h, 300 µM [2]: 89.1%
viability at 72 h, 1000 µM [2]: 78.1%
viability at 72 h, 3000 µM [2]: 70.6%
